Experiments:
Japanese bulrush [1] = assay: Test Example 2: herbicidal activity, application during weed generation under submerged conditions (Table 17, symbol B); assay type: in vivo, Japanese bulrush (Schoenoplectus juncoides); details: AAH 320 g/ha; application during weed generation, submerged conditions
Procedure, shortened: (§1)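 Mixed weed seedlings in alluvial soil under a 4 cm water layer, greenhouse-grown at 25–30° C. Compound given as a diluted emulsion into the floodwater at the 1–2 leaf stage; response graded after three weeks.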

late watergrass [2] = assay: Test Example 2: herbicidal activity, application during weed generation under submerged conditions (Table 17, symbol A); assay type: in vivo, late watergrass (Echinochloa oryzicola); details: AAH 320 g/ha; application during weed generation, submerged conditions
Procedure, shortened: as §1

barnyard grass [3] = assay: Test Example 4: herbicidal effect by soil treatment (Table 19, symbol H); assay type: in vivo, barnyard grass (Echinochloa crus-galli); details: amount of applied herbicide 320 g/ha
Procedure, shortened: (§2)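 Seeds were sown in sterilized diluvial soil and covered with about 1.5 cm of soil. An emulsion formulation diluted with water to a predetermined herbicide amount was sprayed evenly onto the soil surface. Plants grew in a greenhouse at 25° C. to 30° C., and the effect was scored three weeks after application using criteria from an earlier test.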

wild oat [4] = assay: Test Example 5: herbicidal effect by foliage application, plastic box (Table 20, symbol I); assay type: in vivo, wild oat (Avena fatua); details: 320 g/ha; for herbicidal effect on I: wild oat (evaluation grade 0-5): foliage application after 14-day growth, evaluated three weeks after application; for I: wild oat, herbicidal effect grade: foliage application, three weeks after application
Procedure, shortened: (§3)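 Plants sown in sterilized diluvial soil and grown 14 days in a greenhouse at 25° C to 30° C, then sprayed on the foliage with the compound's emulsion diluted in water to a predetermined herbicide amount. Injury to weeds and crops scored three weeks after application on a visual rating scale.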

barnyard grass [5] = assay: Test Example 3: herbicidal effect by foliage application, Wagner pot (Table 18, symbol H); assay type: in vivo, barnyard grass (Echinochloa crus-galli); details: for herbicidal effect on barnyard grass (H): 320 g/ha
Procedure, shortened: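 Plants were sown in alluvial soil held under 0.1–0.5 cm standing water and grown 14 days in a greenhouse at 25–30 °C. An emulsifiable formulation, water-diluted to the set dose, was then sprayed onto the foliage, and effects were scored three weeks later using previously defined criteria.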

wild oat [6] = assay: Test Example 4: herbicidal effect by soil treatment (Table 19, symbol I); assay type: in vivo, wild oat (Avena fatua); details: amount of applied herbicide 320 g/ha
Procedure, shortened: as §2

Japanese bulrush [7] = assay: Test Example 1: herbicidal activity, application before weed generation under submerged conditions (Table 16, symbol B); assay type: in vivo, Japanese bulrush (Schoenoplectus juncoides); details: amount of applied herbicide 320 g/ha
Procedure, shortened: (§4)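 Emulsion formulation, water-diluted to set dose, was put onto the flooded surface (4 cm depth, alluvial soil) the same day weeds were sown and 2.5-leaf rice transplanted. After 3 weeks at 25-30 °C under glass, each species was rated 0 (≤5% kill) to 5 (≥90% kill).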

Italian ryegrass [8] = assay: Test Example 5: herbicidal effect by foliage application, plastic box (Table 20, symbol K); assay type: in vivo, Italian ryegrass (Lolium multiflorum); details: 320 g/ha; for herbicidal effect on K: Italian ryegrass (evaluation grade 0-5): foliage application after 14-day growth, evaluated three weeks after application; for K: Italian ryegrass, herbicidal effect grade: foliage application, three weeks after application
Procedure, shortened: as §3

chickweed = assay: Test Example 4: herbicidal effect by soil treatment (Table 19, symbol P); assay type: in vivo, common chickweed (Stellaria media); details: amount of applied herbicide 320 g/ha
Procedure, shortened: as §2

redroot pigweed = assay: Test Example 5: herbicidal effect by foliage application, plastic box (Table 20, symbol N); assay type: in vivo, redroot pigweed (Amaranthus retroflexus); details: 320 g/ha; for herbicidal effect on N: redroot pigweed (evaluation grade 0-5): foliage application after 14-day growth, evaluated three weeks after application; for N: redroot pigweed, herbicidal effect grade: foliage application, three weeks after application
Procedure, shortened: as §3

late watergrass [9] = assay: Test Example 1: herbicidal activity, application before weed generation under submerged conditions (Table 16, symbol A); assay type: in vivo, late watergrass (Echinochloa oryzicola); details: amount of applied herbicide 320 g/ha
Procedure, shortened: as §4

velvetleaf = assay: Test Example 5: herbicidal effect by foliage application, plastic box (Table 20, symbol M); assay type: in vivo, velvetleaf (Abutilon theophrasti); details: 320 g/ha; for herbicidal effect on M: velvetleaf (evaluation grade 0-5): foliage application after 14-day growth, evaluated three weeks after application; for M: velvetleaf, herbicidal effect grade: foliage application, three weeks after application
Procedure, shortened: as §3

blackgrass [10] = assay: Test Example 5: herbicidal effect by foliage application, plastic box (Table 20, symbol J); assay type: in vivo, blackgrass (Alopecurus myosuroides); details: 320 g/ha; for herbicidal effect on J: blackgrass (evaluation grade 0-5): foliage application after 14-day growth, evaluated three weeks after application; for J: blackgrass, herbicidal effect grade: foliage application, three weeks after application
Procedure, shortened: as §3

Italian ryegrass [11] = assay: Test Example 4: herbicidal effect by soil treatment (Table 19, symbol K); assay type: in vivo, Italian ryegrass (Lolium multiflorum); details: amount of applied herbicide 320 g/ha
Procedure, shortened: as §2

blackgrass [12] = assay: Test Example 4: herbicidal effect by soil treatment (Table 19, symbol J); assay type: in vivo, blackgrass (Alopecurus myosuroides); details: amount of applied herbicide 320 g/ha
Procedure, shortened: as §2

green foxtail = assay: Test Example 4: herbicidal effect by soil treatment (Table 19, symbol G); assay type: in vivo, green foxtail (Setaria viridis); details: amount of applied herbicide 320 g/ha
Procedure, shortened: as §2

persian speedwell = assay: Test Example 4: herbicidal effect by soil treatment (Table 19, symbol R); assay type: in vivo, Persian speedwell (Veronica persica); details: amount of applied herbicide 320 g/ha
Procedure, shortened: as §2

Row | Structure (SMILES) | herbicidal effect rating, B: Japanese bulrush (Japanese bulrush [1]) | herbicidal effect rating, A: late watergrass (late watergrass [2]) | Herbicidal effect by soil treatment, H: barnyard grass (barnyard grass [3]) | herbicidal effect on I: wild oat (evaluation grade 0-5) (wild oat [4]) | herbicidal effect on barnyard grass (H) (barnyard grass [5]) | Herbicidal effect by soil treatment, I: wild oat (wild oat [6]) | Herbicidal effect, B: Japanese bulrush (Japanese bulrush [7]) | herbicidal effect on K: Italian ryegrass (evaluation grade 0-5) (Italian ryegrass [8]) | Herbicidal effect by soil treatment, P: chickweed (chickweed) | herbicidal effect on N: redroot pigweed (evaluation grade 0-5) (redroot pigweed) | Herbicidal effect, A: late watergrass (late watergrass [9]) | herbicidal effect on M: velvetleaf (evaluation grade 0-5) (velvetleaf) | herbicidal effect on J: blackgrass (evaluation grade 0-5) (blackgrass [10]) | Herbicidal effect by soil treatment, K: Italian ryegrass (Italian ryegrass [11]) | Herbicidal effect by soil treatment, J: blackgrass (blackgrass [12]) | Herbicidal effect by soil treatment, G: green foxtail (green foxtail) | Herbicidal effect by soil treatment, R: persian speedwell (persian speedwell) | I: wild oat, herbicidal effect grade (wild oat [4]) | K: Italian ryegrass, herbicidal effect grade (Italian ryegrass [8]) | N: redroot pigweed, herbicidal effect grade (redroot pigweed) | other results
1 | CCCC(=O)Oc1c(C)nn(C)c(=O)c1-c1c(-c2ccc(OC)cc2)sc2c(Cl)cccc12 [4-024] | 0 (Herbicidal rate of 5% or less (almost no effect)) | 3 (Herbicidal rate of 40% or more and less than 70%) | 0 (Herbicidal rate of 5% or less (almost no effect)) | 0 (Herbicidal rate of 5% or less (almost no effect)) | 4 (Herbicidal rate of 70% or more and less than 90%) | 0 (Herbicidal rate of 5% or less (almost no effect)) | 2 (Herbicidal rate of 20% or more and less than 40%) | 4 (Herbicidal rate of 70% or more and less than 90%) | 0 (Herbicidal rate of 5% or less (almost no effect)) | 5 (Herbicidal rate of 90% or more (almost completely withered)) | 3 (Herbicidal rate of 40% or more and less than 70%) | 4 (Herbicidal rate of 70% or more and less than 90%) | 0 (Herbicidal rate of 5% or less (almost no effect)) | 0 (Herbicidal rate of 5% or less (almost no effect)) | 0 (Herbicidal rate of 5% or less (almost no effect)) | 2 (Herbicidal rate of 20% or more and less than 40%) | 0 (Herbicidal rate of 5% or less (almost no effect)) |  |  |  | 
2 | COc1ccccc1-c1sc2cc(SC)ccc2c1-c1c(O)c(C)nn(C)c1=O [3-163] | 0 (Herbicidal rate of 5% or less (almost no effect)) | 3 (Herbicidal rate of 40% or more and less than 70%) | 5 (Herbicidal rate of 90% or more (almost completely withered)) | 5 (Herbicidal rate of 90% or more (almost completely withered)) | 5 (Herbicidal rate of 90% or more (almost completely withered)) | 0 (Herbicidal rate of 5% or less (almost no effect)) | 3 (Herbicidal rate of 40% or more and less than 70%) | 4 (Herbicidal rate of 70% or more and less than 90%) | 4 (Herbicidal rate of 70% or more and less than 90%) | 5 (Herbicidal rate of 90% or more (almost completely withered)) | 3 (Herbicidal rate of 40% or more and less than 70%) | 5 (Herbicidal rate of 90% or more (almost completely withered)) | 5 (Herbicidal rate of 90% or more (almost completely withered)) | 3 (Herbicidal rate of 40% or more and less than 70%) | 3 (Herbicidal rate of 40% or more and less than 70%) | 3 (Herbicidal rate of 40% or more and less than 70%) | 3 (Herbicidal rate of 40% or more and less than 70%) |  |  |  | 
3 | CCOc1cc(F)ccc1-c1sc2cc(F)ccc2c1-c1c(O)c(C)nn(C)c1=O [3-011] | 3 (Herbicidal rate of 40% or more and less than 70%) | 3 (Herbicidal rate of 40% or more and less than 70%) |  |  |  |  | 4 (Herbicidal rate of 70% or more and less than 90%) |  |  |  | 5 (Herbicidal rate of 90% or more (almost completely withered)) |  |  |  |  |  |  | 5 (Herbicidal rate of 90% or more (almost completely withered)) | 5 (Herbicidal rate of 90% or more (almost completely withered)) | 5 (Herbicidal rate of 90% or more (almost completely withered)) | herbicidal effect, H: barnyard grass (barnyard grass [3]): 5 (Herbicidal rate of 90% or more (almost completely withered)); herbicidal effect on H: barnyard grass (barnyard grass [5]; amount of applied herbicide 320 g/ha): 5 (Herbicidal rate of 90% or more (almost completely withered)); herbicidal effect, I: wild oat (wild oat [6]): 4 (Herbicidal rate of 70% or more and less than 90%); herbicidal effect, P: chickweed (chickweed): 4 (Herbicidal rate of 70% or more and less than 90%); M: velvetleaf, herbicidal effect grade (velvetleaf): 5 (Herbicidal rate of 90% or more (almost completely withered)); J: blackgrass, herbicidal effect grade (blackgrass [10]): 5 (Herbicidal rate of 90% or more (almost completely withered)); herbicidal effect, K: Italian ryegrass (Italian ryegrass [11]): 3 (Herbicidal rate of 40% or more and less than 70%); herbicidal effect, J: blackgrass (blackgrass [12]): 5 (Herbicidal rate of 90% or more (almost completely withered)); herbicidal effect, G: green foxtail (green foxtail): 5 (Herbicidal rate of 90% or more (almost completely withered)); herbicidal effect, R: persian speedwell (persian speedwell): 4 (Herbicidal rate of 70% or more and less than 90%)
4 | COc1ccccc1-c1sc2cc(OC(F)F)ccc2c1-c1c(O)c(C)nn(C)c1=O [3-113] | 2 (Herbicidal rate of 20% or more and less than 40%) | 0 (Herbicidal rate of 5% or less (almost no effect)) |  |  | 5 (Herbicidal rate of 90% or more (almost completely withered)) |  | 3 (Herbicidal rate of 40% or more and less than 70%) |  |  |  | 4 (Herbicidal rate of 70% or more and less than 90%) |  |  |  |  |  |  | 4 (Herbicidal rate of 70% or more and less than 90%) | 5 (Herbicidal rate of 90% or more (almost completely withered)) | 5 (Herbicidal rate of 90% or more (almost completely withered)) | H: barnyard grass, herbicidal effect grade (barnyard grass [3]): 5 (Herbicidal rate of 90% or more (almost completely withered)); I: wild oat, herbicidal effect grade (wild oat [6]): 0 (Herbicidal rate of 5% or less (almost no effect)); P: chickweed, herbicidal effect grade (chickweed): 5 (Herbicidal rate of 90% or more (almost completely withered)); M: velvetleaf, herbicidal effect grade (velvetleaf): 5 (Herbicidal rate of 90% or more (almost completely withered)); J: blackgrass, herbicidal effect grade (blackgrass [10]): 5 (Herbicidal rate of 90% or more (almost completely withered)); K: Italian ryegrass, herbicidal effect grade (Italian ryegrass [11]): 5 (Herbicidal rate of 90% or more (almost completely withered)); J: blackgrass, herbicidal effect grade (blackgrass [12]): 4 (Herbicidal rate of 70% or more and less than 90%); G: green foxtail, herbicidal effect grade (green foxtail): 5 (Herbicidal rate of 90% or more (almost completely withered)); R: persian speedwell, herbicidal effect grade (persian speedwell): 5 (Herbicidal rate of 90% or more (almost completely withered))

Source: patent publication US20230085307A1, “PYRIDAZINONE COMPOUND AND HERBICIDE” (NISSAN CHEMICAL CORPORATION, priority 2019, published 2023)
